Reference: patent US6416791B1, “Alimentary integrator” (priority 1999, dated 2002)

How the values were obtained:
[1] = test system: patients (symptoms of the disease); assay: comparison testing of symptom changes in patients treated with potassium citrate or potassium tartarate; assay type: in vivo, human; conditions: FIGS. 6 and 7; 4 patients per compound; base condition, 10th and 20th day
Text: The substitution of one or more components of the compound causes an inefficacy of the relevant different compound.
The graph of FIG. 6 is relevant to the changes in symptoms among 4 patients treated using potassium citrate, while the graph of FIG. 7 is relevant to the changes in symptoms among 4 patients treated using potassium tartarate. Similarly to the graph of FIG. 5, on abscissa each graph presents the different symptoms; from left to right-thoracic pain, abdominal pain, osteomuscular pain-dyspnea, cough, nausea, emesis, ascites, temperature, asthenia. The columns are composed by three secondary columns which refer to the different time of recording of the data, with 10 days interval; from left to right base condition (at the beginning of the treatment), at 10th day and at 20th day. Also in these cases the rate utilized as ordinate in the graph is relevant to the intensity (amount) of the symptoms.

[2] = water solubility of the salt; assay type: physicochemical
[3] = stability of the salt (oxidizability); assay type: physicochemical; conditions: due to its easy oxidizability
[4] = toxicity at the stated dosages; conditions: given the stated dosages; long-term use
[5] = test system: patients suffering from different types of neoplasia in advanced phase; assay: testing of potassium ribose ascorbate, given three times a day, in 30 terminally-ill neoplasia patients for more than ten years; assay type: in vivo, human
Description: In FIGS. 2-5 and 8-11 are shown the results of a testing carried out for more than ten years. The testing was carried out on a sample of 30 patients suffering from different types of neoplasia in advanced phase (terminally-ill patients).
The patients were given potassium ribose ascorbate three times a day.
The integrator of the present invention not only allows a good survival percentage but also improves the symptoms of the diseases. In FIG. 5 is a graph showing the changes in ten symptoms among the patients above mentioned. On abscissa the graph presents the different symptoms; from left to right thoracic pain, abdominal pain, osteomuscular pain, dyspnea, cough, nausea, emesis, ascites, temperature, asthenia. Every column is composed by five secondary columns which refer to the different time of recording of the data, with 15 days interval, from left to right: base condition (at the beginning of the treatment), at 15th day, at 30th day, at 45th and at 60th day The rate utilized as ordinate in the graph is relevant to the intensity (amount) of the symptoms. This rate is a normalized value among the different rates utilized for measuring the ten symptoms (i.e. degrees for the temperature, an objective value for pain, cough, etc). A higher rate means a higher means intensity of the symptom.
In particular, FIG.8 is relevant to the mean changes in the hemoglobin rate, in the graph, the abscissa is divided in steps corresponding to 15 days intervals, while the ordinate is expressed in g/dl. FIG. 9 is relevant to the mean changes in the white cells number; in the graph, the abscissa is divided in steps corresponding to 15 days intervals, while the ordinate is expressed in number of cells. FIG. 10 is relevant to the mean changes in the red cells number; in the graph, the abscissa is divided in steps corresponding to 15 days intervals, while the ordinate is expressed in thousands of cells. FIG. 11 is relevant to the mean changes in the erythrosedimentation rate at first hour; in the graph, the abscissa is divided in steps corresponding to 15 days intervals, while the ordinate is expressed in erythrosedimentation rate.

In the case of `O=C([O-])CC(O)(CC(=O)[O-])C(=O)[O-].[K+].[K+].[K+]` [potassium citrate], the “change in intensity of ten symptoms” value [1] is reported as “substantially increasing symptoms rate”.

With `O=C([O-])C(O)C(O)C(=O)[O-].[K+].[K+]` (stereo not shown) [potassium tartarate] the “change in intensity of ten symptoms” value [1] was “substantially increasing symptoms rate”.

In the case of potassium ribosate, the solubility in water [2] is reported as “easily water-soluble”, the stability [3] is reported as “somewhat unstable” and the toxicity [4] is reported as “does not produce any toxicity”.

With potassium ribose ascorbate the “survival percentage after five years” value ([5]; FIG. 2, terminally-ill patients, by location of neoplasia: brain, breast, lung, ovary, prostate, skin) was “very high”, the “survival percentage after ten years” value ([5]; FIG. 3, terminally-ill patients, by location of neoplasia: brain, breast, lung, ovary, prostate, skin) was “very high” and the “change in intensity of ten symptoms (thoracic, abdominal, osteomuscular pain, dyspnea, cough, nausea, emesis, ascites, temperature, asthenia)” value ([5]; FIG. 5, normalized rate, base condition, 15th, 30th, 45th and 60th day) was “all symptoms decreased”. The “mean changes in the hemoglobin rate” value ([5]; FIG. 8, 15 days intervals, ordinate in g/dl) was “increasing rates”, the “mean changes in the white cells number” value ([5]; FIG. 9, 15 days intervals, ordinate in number of cells) was “increasing rates” and the “mean changes in the red cells number” value ([5]; FIG. 10, 15 days intervals, ordinate in thousands of cells) was “increasing rates”. The “mean changes in the erythrosedimentation rate at first hour” value ([5]; FIG. 11, 15 days intervals) was “decreasing rate” and the stability [3] was “somewhat unstable”.
